Measurements published in PMC8252567 (Angewandte Chemie (International Ed. in English), 2021).
pKd: −log10 of the molar value. Non-standard residues stand in square brackets, D forms with d. Residues, ends and D or L forms follow the SMILES beside them. *: point of attachment. FITC = O=C1OC2(c3ccc(O)cc3Oc3cc(O)ccc32)c2ccc(NC(=S)*)cc21; Nle = CCCC[C@H](N)C(=O)O; AEEA = NCCOCCOCC(=O)O; βAla = NCCC(=O)O

Target: T1, full length β-catenin (aa 1-781) (Homo sapiens, UniProt P35222)
T1 sequence (P35222 1-781): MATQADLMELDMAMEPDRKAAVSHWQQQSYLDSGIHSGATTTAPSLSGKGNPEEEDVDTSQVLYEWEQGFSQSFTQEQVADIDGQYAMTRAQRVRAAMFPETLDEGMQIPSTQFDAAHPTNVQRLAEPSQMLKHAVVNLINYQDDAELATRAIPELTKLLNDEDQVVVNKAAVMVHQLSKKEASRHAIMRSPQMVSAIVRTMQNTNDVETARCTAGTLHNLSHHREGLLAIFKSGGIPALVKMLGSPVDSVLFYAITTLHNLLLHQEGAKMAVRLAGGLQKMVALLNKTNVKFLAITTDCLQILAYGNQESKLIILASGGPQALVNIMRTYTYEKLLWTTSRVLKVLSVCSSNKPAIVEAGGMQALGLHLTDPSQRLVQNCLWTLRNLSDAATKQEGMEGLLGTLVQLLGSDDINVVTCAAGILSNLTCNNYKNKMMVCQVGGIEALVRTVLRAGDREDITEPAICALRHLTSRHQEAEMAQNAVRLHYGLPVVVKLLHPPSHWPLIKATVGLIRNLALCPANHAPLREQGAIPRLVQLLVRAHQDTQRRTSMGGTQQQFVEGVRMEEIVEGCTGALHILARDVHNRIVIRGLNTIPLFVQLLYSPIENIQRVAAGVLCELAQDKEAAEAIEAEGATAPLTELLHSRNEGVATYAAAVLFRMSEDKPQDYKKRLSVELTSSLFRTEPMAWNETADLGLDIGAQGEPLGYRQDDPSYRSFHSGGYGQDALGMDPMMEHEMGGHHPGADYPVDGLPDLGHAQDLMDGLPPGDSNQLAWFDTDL
Assay: Direct fluorescence polarization
Format: binding

Structure (SMILES) | pKd
CC(C)C[C@H](NC(=O)[C@H](CO)NC(=O)[C@H](CC(=O)O)NC(=O)COCCOCCNC(=S)Nc1ccc2c(c1)C(=O)OC21c2ccc(O)cc2Oc2cc(O)ccc21)C(=O)N[C@@H](CC(C)C)C(=O)N[C@H](C(=O)N[C@@H](Cc1ccccc1)C(=O)NCCC(=O)NCCC(=O)N[C@H](C(=O)N[C@H](C(=O)N[C@@H](CCCNC(=N)N)C(=O)N[C@@H](CC(N)=O)C(=O)N[C@@H](CC(=O)O)C(=O)N[C@H](C(N)=O)C(C)C)[C@@H](C)O)C(C)C)C(C)C [peptide 11] ({FITC-AEEA}-DSLLVF[βAla][βAla]VTRNDV-NH2) | < 5.30
CCCC[C@H](NC(=O)[C@H](CC(C)C)NC(=O)[C@@H](NC(=O)[C@@H]1CCCN1C(=O)[C@H](C)NC(=O)[C@@H](NC(=O)[C@H](CC(=O)O)NC(=O)[C@H](CC(N)=O)NC(=O)[C@H](CCCNC(=N)N)NC(=O)[C@@H](NC(=O)[C@@H](NC(=O)CCNC(=O)CCNC(=O)[C@H](Cc1ccccc1)NC(=O)[C@@H](NC(=O)[C@H](CC(C)C)NC(=O)[C@H](CC(C)C)NC(=O)[C@H](CO)NC(=O)[C@H](CC(=O)O)NC(=O)COCCOCCNC(=S)Nc1ccc2c(c1)C(=O)OC21c2ccc(O)cc2Oc2cc(O)ccc21)C(C)C)C(C)C)[C@@H](C)O)C(C)C)[C@@H](C)O)C(=O)N[C@@H](CO)C(=O)N[C@H](C(=O)N1CCC[C@H]1C(=O)N[C@@H](CCC(N)=O)C(N)=O)C(C)C [peptide 9] ({FITC-AEEA}-DSLLVF[βAla][βAla]VTRNDVAPTL[Nle]SVPQ-NH2) | < 5.30
